In ChEMBL document CHEMBL1909046, “DrugMatrix in vitro pharmacology data”:
Where a SMILES comes first, the peptide text is derived from it. Bridges are numbered along the chain shown (N, C = ends). [ ]: non-standard residue; d: D form. The star is where a group is joined. Ileψ(thiazoline)Cys = CC[C@H](C)[C@H](N)C1=N[C@H](C(=O)*)CS1; dOrn = NCCC[C@@H](N)C(=O)O

Key:
[1] = target: T1, C-C chemokine receptor type 4 (Homo sapiens, UniProt P51679); assay type: cell membranes, Membrane; details: chem-1; also: in other assays of this panel Not Active means under 50% inhibition at 10 µM
T1 sequence (P51679 whole entry): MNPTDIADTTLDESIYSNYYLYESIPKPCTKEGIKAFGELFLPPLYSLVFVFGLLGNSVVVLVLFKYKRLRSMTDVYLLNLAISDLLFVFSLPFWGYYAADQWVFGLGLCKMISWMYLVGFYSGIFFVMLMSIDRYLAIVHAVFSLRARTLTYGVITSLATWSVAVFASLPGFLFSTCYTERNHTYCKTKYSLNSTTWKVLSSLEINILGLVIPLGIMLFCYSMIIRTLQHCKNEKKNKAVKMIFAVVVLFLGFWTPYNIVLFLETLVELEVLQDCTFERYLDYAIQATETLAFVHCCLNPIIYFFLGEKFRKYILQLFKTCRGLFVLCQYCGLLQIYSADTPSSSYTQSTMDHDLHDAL

Mu-type opioid receptor = Mu-type opioid receptor (Homo sapiens, UniProt P35372); experiment: DRUGMATRIX: Opiate mu (OP3, MOP) radioligand binding (ligand: [3H] Diprenorphine); assay type: cell membranes, CHO-K1, Membrane; details: cho-k1; Not Active = under 50% inhibition at 10 µM
[2] = target: T2, Vasoactive intestinal polypeptide receptor 1 (Homo sapiens, UniProt P32241); assay type: cell membranes, Membrane; details: ht-29; also: in other assays of this panel Not Active means under 50% inhibition at 10 µM
T2 sequence (P32241 whole entry): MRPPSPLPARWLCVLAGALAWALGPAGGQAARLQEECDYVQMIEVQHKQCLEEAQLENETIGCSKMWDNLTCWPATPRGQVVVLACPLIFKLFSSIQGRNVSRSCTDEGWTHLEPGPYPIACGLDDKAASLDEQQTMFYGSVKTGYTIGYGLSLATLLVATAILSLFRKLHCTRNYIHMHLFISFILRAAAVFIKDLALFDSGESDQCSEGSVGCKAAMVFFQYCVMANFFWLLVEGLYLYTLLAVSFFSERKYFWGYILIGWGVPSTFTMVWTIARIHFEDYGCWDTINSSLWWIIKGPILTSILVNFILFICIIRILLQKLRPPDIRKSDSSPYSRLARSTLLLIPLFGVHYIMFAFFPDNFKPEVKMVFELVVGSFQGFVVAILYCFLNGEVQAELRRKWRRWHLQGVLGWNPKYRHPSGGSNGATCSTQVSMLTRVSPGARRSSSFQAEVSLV

[3] = target: Beta-3 adrenergic receptor (Homo sapiens, UniProt P13945); experiment: DRUGMATRIX: Adrenergic beta3 radioligand binding (ligand: [125I] Cyanopindolol); assay type: cell membranes, HEK293, Membrane; details: hek293; Not Active = under 50% inhibition at 10 µM
D(4) dopamine receptor = target: T3, D(4) dopamine receptor (Homo sapiens, UniProt P21917); experiment: DRUGMATRIX: Dopamine D4.2 radioligand binding (ligand: [3H] Spiperone); assay type: cell membranes, CHO-K1, Membrane; details: cho-k1; Not Active = under 50% inhibition at 10 µM
T3 sequence (P21917 whole entry): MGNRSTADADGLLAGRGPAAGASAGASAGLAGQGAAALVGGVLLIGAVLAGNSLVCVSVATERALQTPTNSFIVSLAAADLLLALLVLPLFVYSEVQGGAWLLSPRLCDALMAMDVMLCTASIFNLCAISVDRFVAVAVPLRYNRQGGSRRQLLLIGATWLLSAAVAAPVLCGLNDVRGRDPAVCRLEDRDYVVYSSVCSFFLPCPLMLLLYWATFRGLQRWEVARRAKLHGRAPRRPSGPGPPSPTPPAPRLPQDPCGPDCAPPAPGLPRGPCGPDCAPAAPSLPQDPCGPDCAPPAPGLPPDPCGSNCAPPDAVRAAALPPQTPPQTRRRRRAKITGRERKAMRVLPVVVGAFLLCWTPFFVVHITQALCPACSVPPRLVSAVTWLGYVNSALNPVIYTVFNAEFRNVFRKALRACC

[4] = target: Delta-type opioid receptor (Homo sapiens, UniProt P41143); assay type: cell membranes, HEK293, Membrane; details: hek293; also: in other assays of this panel Not Active means under 50% inhibition at 10 µM
Cytochrome P450 2D6 = Cytochrome P450 2D6 (Homo sapiens, UniProt P10635); details: bti-tn-5b1-4; also: in other assays of this panel Not Active means under 50% inhibition at 10 µM
Acetylcholinesterase = Acetylcholinesterase (Homo sapiens, UniProt P22303); experiment: DRUGMATRIX: Acetylcholinesterase enzyme inhibition (substrate: acetylthiocholine); assay type: cell-based, HEK293; details: hek293; Not Active = under 50% inhibition at 10 µM
Adenosine receptor A3 = target: T4, Adenosine receptor A3 (Homo sapiens, UniProt P0DMS8); assay type: cell membranes, CHO-K1, Membrane; details: cho-k1
T4 sequence (P0DMS8 whole entry): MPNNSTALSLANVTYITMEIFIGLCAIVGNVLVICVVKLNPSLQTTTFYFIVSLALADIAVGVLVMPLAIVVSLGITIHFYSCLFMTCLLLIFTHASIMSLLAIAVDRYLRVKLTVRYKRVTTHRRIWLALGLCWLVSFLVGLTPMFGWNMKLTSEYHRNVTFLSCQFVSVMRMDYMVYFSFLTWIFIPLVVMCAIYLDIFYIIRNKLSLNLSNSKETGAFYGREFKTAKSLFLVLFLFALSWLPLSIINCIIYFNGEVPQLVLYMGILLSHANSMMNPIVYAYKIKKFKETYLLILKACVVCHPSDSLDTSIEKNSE

[5] = DRUGMATRIX: Leukotriene, BLT (LTB4) radioligand binding (ligand: [3H]LTB4); assay type: cell membranes, Membrane; details: u-937; Not Active = under 50% inhibition at 10 µM
[6] = DRUGMATRIX: Interleukin IL-1 radioligand binding (ligand: [125I] interleukin 1beta); assay type: cell membranes, Membrane; details: nih3t3; Not Active = under 50% inhibition at 10 µM
Estrogen receptor beta = Estrogen receptor beta (Homo sapiens, UniProt Q92731); details: sf9; also: in other assays of this panel Not Active means under 50% inhibition at 10 µM
[7] = target: T5, Cholecystokinin receptor type A (Homo sapiens, UniProt P32238); assay type: cell membranes, Membrane; details: 1321-n1; also: in other assays of this panel Not Active means under 50% inhibition at 10 µM
T5 sequence (P32238 whole entry): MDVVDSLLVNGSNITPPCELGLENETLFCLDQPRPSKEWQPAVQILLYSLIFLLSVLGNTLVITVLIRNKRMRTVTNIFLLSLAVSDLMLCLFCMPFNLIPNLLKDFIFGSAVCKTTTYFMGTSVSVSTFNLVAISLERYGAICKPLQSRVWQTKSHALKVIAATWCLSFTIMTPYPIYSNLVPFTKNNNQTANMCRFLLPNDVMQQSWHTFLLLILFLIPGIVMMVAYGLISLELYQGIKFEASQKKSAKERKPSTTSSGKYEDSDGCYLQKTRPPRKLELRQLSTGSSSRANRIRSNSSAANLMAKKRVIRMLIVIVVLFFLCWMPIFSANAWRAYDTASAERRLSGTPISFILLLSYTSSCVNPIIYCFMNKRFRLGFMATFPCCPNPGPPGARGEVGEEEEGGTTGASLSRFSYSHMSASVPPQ

Chain of Delta-type opioid receptor (P41143 whole entry): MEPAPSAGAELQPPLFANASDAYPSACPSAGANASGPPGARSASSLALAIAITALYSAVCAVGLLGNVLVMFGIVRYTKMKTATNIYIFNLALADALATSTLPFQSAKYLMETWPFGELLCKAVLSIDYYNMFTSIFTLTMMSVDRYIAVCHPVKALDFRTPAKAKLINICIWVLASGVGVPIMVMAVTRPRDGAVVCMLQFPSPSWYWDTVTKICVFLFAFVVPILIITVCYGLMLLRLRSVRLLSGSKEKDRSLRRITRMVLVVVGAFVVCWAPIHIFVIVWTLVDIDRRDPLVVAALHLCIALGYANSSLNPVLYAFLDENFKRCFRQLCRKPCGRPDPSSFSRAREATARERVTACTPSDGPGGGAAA
Chain of Beta-3 adrenergic receptor (P13945 whole entry): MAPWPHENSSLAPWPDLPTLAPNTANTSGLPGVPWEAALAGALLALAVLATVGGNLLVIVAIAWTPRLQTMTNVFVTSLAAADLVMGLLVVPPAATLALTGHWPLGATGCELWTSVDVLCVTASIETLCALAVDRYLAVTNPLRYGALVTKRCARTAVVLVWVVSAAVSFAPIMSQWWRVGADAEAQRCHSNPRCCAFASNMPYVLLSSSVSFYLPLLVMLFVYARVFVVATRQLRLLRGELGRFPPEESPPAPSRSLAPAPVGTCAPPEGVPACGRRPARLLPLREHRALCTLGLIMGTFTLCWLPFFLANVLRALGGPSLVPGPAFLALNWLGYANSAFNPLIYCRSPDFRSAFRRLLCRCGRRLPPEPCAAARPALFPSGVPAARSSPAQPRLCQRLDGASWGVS
Chain of Cytochrome P450 2D6 (P10635 whole entry): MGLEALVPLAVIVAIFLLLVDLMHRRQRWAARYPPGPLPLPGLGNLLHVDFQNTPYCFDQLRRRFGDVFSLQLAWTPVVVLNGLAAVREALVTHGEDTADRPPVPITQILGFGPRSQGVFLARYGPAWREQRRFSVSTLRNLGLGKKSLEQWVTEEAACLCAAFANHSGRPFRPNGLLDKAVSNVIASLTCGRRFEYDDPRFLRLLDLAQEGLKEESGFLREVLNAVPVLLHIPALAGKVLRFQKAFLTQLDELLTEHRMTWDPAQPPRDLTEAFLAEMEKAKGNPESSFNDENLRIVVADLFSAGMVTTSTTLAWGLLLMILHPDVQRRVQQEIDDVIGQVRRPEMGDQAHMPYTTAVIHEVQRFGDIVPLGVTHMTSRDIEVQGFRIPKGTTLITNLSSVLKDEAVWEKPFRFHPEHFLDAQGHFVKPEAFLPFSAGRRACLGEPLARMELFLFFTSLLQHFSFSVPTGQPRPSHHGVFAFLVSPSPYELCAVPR
Chain of Acetylcholinesterase (P22303 whole entry): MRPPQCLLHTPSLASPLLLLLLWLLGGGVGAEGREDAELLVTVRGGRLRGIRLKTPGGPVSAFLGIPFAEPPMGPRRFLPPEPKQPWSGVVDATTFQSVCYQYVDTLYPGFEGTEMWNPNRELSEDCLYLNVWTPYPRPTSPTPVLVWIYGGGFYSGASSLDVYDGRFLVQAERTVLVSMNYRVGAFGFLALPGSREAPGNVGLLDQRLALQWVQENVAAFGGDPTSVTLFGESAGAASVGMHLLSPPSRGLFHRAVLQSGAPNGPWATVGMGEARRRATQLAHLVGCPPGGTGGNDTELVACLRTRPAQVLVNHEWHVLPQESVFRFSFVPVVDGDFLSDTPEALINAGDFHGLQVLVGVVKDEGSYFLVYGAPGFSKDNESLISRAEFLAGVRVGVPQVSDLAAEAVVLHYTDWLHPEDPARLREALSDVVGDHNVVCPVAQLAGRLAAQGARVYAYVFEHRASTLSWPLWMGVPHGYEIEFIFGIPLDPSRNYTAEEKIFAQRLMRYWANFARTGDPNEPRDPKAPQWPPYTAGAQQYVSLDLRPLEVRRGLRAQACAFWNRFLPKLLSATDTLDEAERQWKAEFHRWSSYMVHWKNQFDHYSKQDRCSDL
Chain of Mu-type opioid receptor (P35372 whole entry): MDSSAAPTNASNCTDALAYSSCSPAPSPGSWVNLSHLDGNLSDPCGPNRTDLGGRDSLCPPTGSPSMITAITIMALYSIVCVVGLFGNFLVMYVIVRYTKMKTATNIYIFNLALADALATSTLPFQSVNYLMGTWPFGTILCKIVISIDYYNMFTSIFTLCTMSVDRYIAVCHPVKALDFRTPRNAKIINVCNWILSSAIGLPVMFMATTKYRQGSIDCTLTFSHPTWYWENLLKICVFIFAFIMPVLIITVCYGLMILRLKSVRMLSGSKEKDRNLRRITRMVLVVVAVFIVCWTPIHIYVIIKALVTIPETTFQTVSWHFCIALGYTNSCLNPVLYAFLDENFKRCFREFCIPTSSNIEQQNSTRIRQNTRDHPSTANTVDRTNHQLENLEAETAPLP
Chain of Estrogen receptor beta (Q92731 whole entry): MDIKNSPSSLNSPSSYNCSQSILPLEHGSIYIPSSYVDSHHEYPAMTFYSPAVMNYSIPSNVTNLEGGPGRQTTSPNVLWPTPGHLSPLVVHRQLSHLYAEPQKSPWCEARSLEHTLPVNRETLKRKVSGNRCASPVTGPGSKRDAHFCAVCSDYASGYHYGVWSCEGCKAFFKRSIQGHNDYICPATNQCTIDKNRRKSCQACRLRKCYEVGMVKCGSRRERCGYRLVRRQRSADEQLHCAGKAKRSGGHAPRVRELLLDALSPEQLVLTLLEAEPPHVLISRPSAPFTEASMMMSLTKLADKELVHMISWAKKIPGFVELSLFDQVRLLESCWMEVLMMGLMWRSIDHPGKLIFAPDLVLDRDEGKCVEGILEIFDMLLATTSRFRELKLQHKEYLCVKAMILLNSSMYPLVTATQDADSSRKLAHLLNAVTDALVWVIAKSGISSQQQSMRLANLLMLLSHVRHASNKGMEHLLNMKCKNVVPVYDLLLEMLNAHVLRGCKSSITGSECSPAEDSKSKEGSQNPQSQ

CN(C)[C@@H]1C(O)=C(C(N)=O)C(=O)[C@@]2(O)C(O)=C3C(=O)c4c(O)cccc4[C@@](C)(O)[C@H]3[C@H](O)[C@@H]12 [OXYTETRACYCLINE]
Not Active: IC50 [1] | IC50 (Mu-type opioid receptor) | IC50 [2] | IC50 [3] | IC50 (D(4) dopamine receptor) | IC50 [4] | IC50 (Cytochrome P450 2D6) | Ki (Cytochrome P450 2D6) | IC50 (Acetylcholinesterase) | IC50 (Adenosine receptor A3) | IC50 [5] | Ki [5] | IC50 [6] | Ki [6] | IC50 (Estrogen receptor beta) | IC50 [7]

NS(=O)(=O)c1cc2c(cc1Cl)NCNS2(=O)=O [HYDROCHLOROTHIAZIDE]
Not Active: IC50 [1] | IC50 (Mu-type opioid receptor) | IC50 [2] | IC50 [3] | IC50 (D(4) dopamine receptor) | IC50 [4] | IC50 (Cytochrome P450 2D6) | Ki (Cytochrome P450 2D6) | IC50 (Acetylcholinesterase) | IC50 (Adenosine receptor A3) | IC50 [5] | Ki [5] | IC50 [6] | Ki [6] | IC50 (Estrogen receptor beta) | IC50 [7]

CC[C@H](C)[C@H](N)C1=N[C@H](C(=O)N[C@@H](CC(C)C)C(=O)N[C@H](CCC(=O)O)C(=O)N[C@H](C(=O)N[C@H]2CCCCNC(=O)[C@H](CC(N)=O)NC(=O)[C@@H](CC(=O)O)NC(=O)[C@H](Cc3cnc[nH]3)NC(=O)[C@@H](Cc3ccccc3)NC(=O)[C@H]([C@@H](C)CC)NC(=O)[C@@H](CCCN)NC2=O)[C@@H](C)CC)CS1 [BACITRACIN] ({Ileψ(thiazoline)Cys}-L[dE]IK[dOrn]I[dF]H[dD]N; lactam 4-C)
Not Active: IC50 [1] | IC50 (Mu-type opioid receptor) | IC50 [2] | IC50 [3] | IC50 (D(4) dopamine receptor) | IC50 [4] | IC50 (Cytochrome P450 2D6) | Ki (Cytochrome P450 2D6) | IC50 (Acetylcholinesterase) | IC50 (Adenosine receptor A3) | IC50 [5] | Ki [5] | IC50 [6] | Ki [6] | IC50 (Estrogen receptor beta) | IC50 [7]

COC(=O)[C@H](c1ccccc1Cl)N1CCc2sccc2C1 [CLOPIDOGREL]
Not Active: IC50 [1] | IC50 (Mu-type opioid receptor) | IC50 [2] | IC50 [3] | IC50 (D(4) dopamine receptor) | IC50 [4] | IC50 (Cytochrome P450 2D6) | Ki (Cytochrome P450 2D6) | IC50 (Acetylcholinesterase) | IC50 (Adenosine receptor A3) | IC50 [5] | Ki [5] | IC50 [6] | Ki [6] | IC50 (Estrogen receptor beta) | IC50 [7]

CCOC(=O)c1ccc(N)cc1 [BENZOCAINE]
Not Active: IC50 [1] | IC50 (Mu-type opioid receptor) | IC50 [2] | IC50 [3] | IC50 (D(4) dopamine receptor) | IC50 [4] | IC50 (Cytochrome P450 2D6) | Ki (Cytochrome P450 2D6) | IC50 (Acetylcholinesterase) | IC50 (Adenosine receptor A3) | IC50 [5] | Ki [5] | IC50 [6] | Ki [6] | IC50 (Estrogen receptor beta) | IC50 [7]

Oc1cccc2cccnc12 [OXYQUINOLINE]
Not Active: IC50 [1] | IC50 (Mu-type opioid receptor) | IC50 [2] | IC50 [3] | IC50 (D(4) dopamine receptor) | IC50 [4] | IC50 (Cytochrome P450 2D6) | Ki (Cytochrome P450 2D6) | IC50 (Acetylcholinesterase) | IC50 (Adenosine receptor A3) | IC50 [5] | Ki [5] | IC50 [6] | Ki [6] | IC50 (Estrogen receptor beta) | IC50 [7]
